Laboratory results from patent US10968203B2, “Pyrimidinyl-pyridyloxy-naphthyl compounds and methods of treating IRE1-related diseases and disorders” (Genentech, Inc., priority 2017, dated 2021).

These compounds were tested on XBP1s-luc 293 LUC (assay: cellular PD assay, XBP1s-LUC reporter (Example 903)). Conditions: Table 1; read-out: XBP1s-luc 293 LUC (IC50).
Type: cell-based
Procedure, shortened: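 A luciferase fusion, in frame and expressed only when the XBP1 transcript is spliced, served as the readout of cellular IRE1α activity in an XBP1-Luc reporter line.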

| Compound | IC50 [µM] |
| --- | --- |
| Cc1ccc2c(NS(=O)(=O)Cc3cscn3)cccc2c1Oc1ncccc1-c1ccnc(N[C@H]2CCCNC2)n1 [Example 156, (S)—N-(6-Methyl-5-((3-(2-(piperidin-3-ylamino)pyrimidin-4-yl)pyridin-2-yl)oxy)naphthalen-1-yl)-1-(thiazol-4-yl)methanesulfonamide] | 0.157 |
| Cc1ccc2c(NS(=O)(=O)Cc3ccc(F)cc3F)cccc2c1Oc1ncccc1-c1ccnc(N[C@H]2CCCNC2)n1 [Example 157, (S)-1-(2,4-Difluorophenyl)-N-(6-methyl-5-((3-(2-(piperidin-3-ylamino)pyrimidin-4-yl)pyridin-2-yl)oxy)naphthalen-1-yl)methanesulfonamide] | 0.008 |
| CCCS(=O)(=O)Nc1cccc2c(Oc3ncccc3-c3ccnc(N[C@H]4CC[C@H](N)CC4)n3)c(C)ccc12 [Example 158, N-(5-((3-(2-(((trans)-4-Aminocyclohexyl)amino)pyrimidin-4-yl)pyridin-2-yl)oxy)-6-methylnaphthalen-1-yl)propane-1-sulfonamide] | 0.471 |
| Cc1ccc2c(NS(=O)(=O)CF)cccc2c1Oc1ncccc1-c1ccnc(N[C@H]2CCCNC2)n1 [Example 159, (S)-1-Fluoro-N-(6-methyl-5-(3-(2-(piperidin-3-ylamino)pyrimidin-4-yl)pyridin-2-yloxy)naphthalen-1-yl)methanesulfonamide] | 0.174 |
| Cc1ccc2c(NS(=O)(=O)Cc3ccc(C(F)F)cc3)cccc2c1Oc1ncccc1-c1ccnc(N[C@H]2CCCNC2)n1 [Example 160, (S)-1-(4-(Difluoromethyl)phenyl)-N-(6-methyl-5-((3-(2-(piperidin-3-ylamino)pyrimidin-4-yl)pyridin-2-yl)oxy)naphthalen-1-yl)methanesulfonamide] | 0.013 |
| CO[C@H]1CNC[C@@H](Nc2nccc(-c3cccnc3Oc3c(C)ccc4c(NS(=O)(=O)Cc5ccccc5)cccc34)n2)C1 [Example 161, N-(5-((3-(2-(((3S,5R)-5-Methoxypiperidin-3-yl)amino)pyrimidin-4-yl)pyridin-2-yl)oxy)-6-methylnaphthalen-1-yl)-1-phenylmethanesulfonamide] | 0.046 |
| Cc1ccc2c(NS(=O)(=O)Cc3ccccc3)cccc2c1Oc1ncccc1-c1ccnc(NC2CNCCC2F)n1 (stereo not drawn) [Example 162, N-(5-((3-(2-((4-Fluoropiperidin-3-yl)amino)pyrimidin-4-yl)pyridin-2-yl)oxy)-6-methylnaphthalen-1-yl)-1-phenylmethanesulfonamide] | 0.067 |
| Cc1cc(NS(=O)(=O)Cc2ccccc2)c2ccccc2c1Oc1ncccc1-c1ccnc(N[C@H]2CCCNC2)n1 [Example 163, (S)—N-(3-Methyl-4-((3-(2-(piperidin-3-ylamino)pyrimidin-4-yl)pyridin-2-yl)oxy)naphthalen-1-yl)-1-phenylmethanesulfonamide] | 0.047 |
| CCCS(=O)(=O)Nc1cc(C)c(Oc2ncccc2-c2ccnc(N[C@H]3CCCNC3)n2)c2ccccc12 [Example 164, (S)—N-(3-Methyl-4-((3-(2-(piperidin-3-ylamino)pyrimidin-4-yl)pyridin-2-yl)oxy)naphthalen-1-yl)propane-1-sulfonamide] | 0.147 |
| CCCS(=O)(=O)Nc1cccc2c(Oc3ncccc3-c3ccnc(N[C@@H]4CNC[C@@H](F)C4)n3)c(C)ccc12 [Example 165, N-(5-((3-(2-(((3S,5S)-5-Fluoropiperidin-3-yl)amino)pyrimidin-4-yl)pyridin-2-yl)oxy)-6-methylnaphthalen-1-yl)propane-1-sulfonamide] | 0.164 |
| Cc1ccc2c(NS(=O)(=O)Cc3ccccc3CO)cccc2c1Oc1ncccc1-c1ccnc(N[C@H]2CCCNC2)n1 [Example 166, (S)-1-(2-(Hydroxymethyl)phenyl)-N-(6-methyl-5-((3-(2-(piperidin-3-ylamino)pyrimidin-4-yl)pyridin-2-yl)oxy)naphthalen-1-yl)methanesulfonamide] | 0.118 |
| Cc1ccc2c(NS(=O)(=O)Cc3ccncc3)cccc2c1Oc1ncccc1-c1ccnc(N[C@H]2CCCNC2)n1 [Example 167, (S)—N-(6-Methyl-5-((3-(2-(piperidin-3-ylamino)pyrimidin-4-yl)pyridin-2-yl)oxy)naphthalen-1-yl)-1-(pyridin-4-yl)methanesulfonamide] | 0.019 |
| Cc1cc(S(=O)(=O)Nc2cccc3c(Oc4ncccc4-c4ccnc(N[C@H]5CCCNC5)n4)c(C)ccc23)sn1 [Example 168, (S)-3-Methyl-N-(6-methyl-5-((3-(2-(piperidin-3-ylamino)pyrimidin-4-yl)pyridin-2-yl)oxy)naphthalen-1-yl)isothiazole-5-sulfonamide] | 0.172 |
| Cc1ccc2c(NS(=O)(=O)Cc3ccccc3CF)cccc2c1Oc1ncccc1-c1ccnc(N[C@H]2CCCNC2)n1 [Example 170, (S)-1-(2-(Fluoromethyl)phenyl)-N-(6-methyl-5-((3-(2-(piperidin-3-ylamino)pyrimidin-4-yl)pyridin-2-yl)oxy)naphthalen-1-yl)methanesulfonamide] | 0.015 |
| Cc1cccc(S(=O)(=O)Nc2cccc3c(Oc4ncccc4-c4ccnc(N[C@H]5CCCNC5)n4)c(C)ccc23)n1 [Example 171, (S)-6-Methyl-N-(6-methyl-5-((3-(2-(piperidin-3-ylamino)pyrimidin-4-yl)pyridin-2-yl)oxy)naphthalen-1-yl)pyridine-2-sulfonamide] | 0.309 |
| Cc1ccc2c(NS(=O)(=O)CBr)cccc2c1Oc1ncccc1-c1ccnc(N[C@H]2CCCNC2)n1 [Example 172, (S)-1-Bromo-N-(6-methyl-5-(3-(2-(piperidin-3-ylamino)pyrimidin-4-yl)pyridin-2-yloxy)naphthalen-1-yl)methanesulfonamide] | 0.393 |
| CCC(=O)Nc1cccc2c(Oc3ncccc3-c3ccnc(N[C@H]4CCCNC4)n3)c(C)ccc12 [Example 173, (S)—N-(6-Methyl-5-((3-(2-(piperidin-3-ylamino)pyrimidin-4-yl)pyridin-2-yl)oxy)naphthalen-1-yl)propionamide] | 0.226 |
| Cc1ccc2c(NC(=O)c3ccc4ccccc4c3)cccc2c1Oc1ncccc1-c1ccnc(N[C@H]2CCCNC2)n1 [Example 174, (S)—N-(6-Methyl-5-((3-(2-(piperidin-3-ylamino)pyrimidin-4-yl)pyridin-2-yl)oxy)naphthalen-1-yl)-2-naphthamide] | 0.278 |
| Cc1ccc2c(NC(=O)c3ccccn3)cccc2c1Oc1ncccc1-c1ccnc(N[C@H]2CCCNC2)n1 [Example 175, (S)—N-(6-Methyl-5-((3-(2-(piperidin-3-ylamino)pyrimidin-4-yl)pyridin-2-yl)oxy)naphthalen-1-yl)picolinamide] | 0.333 |
| Cc1ccc2c(NC(=O)c3cn(C)cn3)cccc2c1Oc1ncccc1-c1ccnc(N[C@H]2CCCNC2)n1 [Example 176, (S)-1-Methyl-N-(6-methyl-5-((3-(2-(piperidin-3-ylamino)pyrimidin-4-yl)pyridin-2-yl)oxy)naphthalen-1-yl)-1H-imidazole-4-carboxamide] | 0.368 |
| Cc1ccc2c(NC(=O)Cc3ccccc3F)cccc2c1Oc1ncccc1-c1ccnc(N[C@H]2CCCNC2)n1 [Example 177, (S)-2-(2-Fluorophenyl)-N-(6-methyl-5-((3-(2-(piperidin-3-ylamino)pyrimidin-4-yl)pyridin-2-yl)oxy)naphthalen-1-yl)acetamide] | 0.108 |
| Cc1ccc2c(NC(=O)CCC(F)(F)F)cccc2c1Oc1ncccc1-c1ccnc(N[C@H]2CCCNC2)n1 [Example 178, (S)-4,4,4-Trifluoro-N-(6-methyl-5-((3-(2-(piperidin-3-ylamino)pyrimidin-4-yl)pyridin-2-yl)oxy)naphthalen-1-yl)butanamide] | 0.125 |
| CCCS(=O)(=O)Nc1cccc2c(Oc3ncccc3-c3ccnc(N[C@H]4CCCNC4)n3)c(Cl)ccc12 [Example 181] | 0.185 |
| CCC(C)C(=O)Nc1cccc2c(Oc3ncccc3-c3ccnc(N[C@H]4CCCNC4)n3)c(C)ccc12 (stereo partly drawn) [Example 182, 2-Methyl-N-(6-methyl-5-((3-(2-(((S)-piperidin-3-yl)amino)pyrimi-din-4-yl)pyridin-2-yl)oxy)naphthalen-1-yl)butanamide] | 0.154 |
| Cc1ccc2c(NC(=O)CC#N)cccc2c1Oc1ncccc1-c1ccnc(N[C@H]2CCCNC2)n1 [Example 183, (S)-2-Cyano-N-(6-methyl-5-((3-(2-(piperidin-3-ylamino)pyrimidin-4-yl)pyridin-2-yl)oxy)naphthalen-1-yl)acetamide] | 0.26 |
| Cc1ccc2c(NC(=O)Cc3ccccc3)cccc2c1Oc1ncccc1-c1ccnc(N[C@H]2CCCNC2)n1 [Example 184, N-[6-Methyl-5-[[3-[2-[[(3S)-3-piperidyl]amino]pyrimidin-4-yl]-2-pyridyl]oxy]-1-naphthyl]-2-phenyl-acetamide] | 0.1 |
| COCCS(=O)(=O)Nc1c(F)ccc2c(Oc3ncccc3-c3ccnc(N[C@H]4CCCNC4)n3)c(C)ccc12 [Example 185, (S)—N-(2-Fluoro-6-methyl-5-((3-(2-(piperidin-3-ylamino)pyrimidin-4-yl)pyridin-2-yl)oxy)naphthalen-1-yl)-2-methoxyethanesulfonamide] | 0.0735 |
| Cc1ccc2c(NS(=O)(=O)Cc3ccc(F)cc3F)c(F)ccc2c1Oc1ncccc1-c1ccnc(N[C@H]2CCCNC2)n1 [Example 186, (S)-1-(2,4-Difluorophenyl)-N-(2-fluoro-6-methyl-5-((3-(2-(piperidin-3-ylamino)pyrimidin-4-yl)pyridin-2-yl)oxy)naphthalen-1-yl)methanesulfonamide] | 0.00489 |
| Cc1ccc2c(NC(=O)C3CCCC3)cccc2c1Oc1ncccc1-c1ccnc(N[C@H]2CCCNC2)n1 [Example 187, (S)—N-(6-Methyl-5-((3-(2-(piperidin-3-ylamino)pyrimidin-4-yl)pyridin-2-yl)oxy)naphthalen-1-yl)cyclopentanecarboxamide] | 0.157 |
| Cc1ccc2c(NC(=O)CC(C)C)cccc2c1Oc1ncccc1-c1ccnc(N[C@H]2CCCNC2)n1 [Example 188, (S)-3-Methyl-N-(6-methyl-5-((3-(2-(piperidin-3-ylamino)pyrimidin-4-yl)pyridin-2-yl)oxy)naphthalen-1-yl)butanamide] | 0.141 |
